This is an account of results in publication PMC7567097, “A nanoluciferase SARS-CoV-2 for rapid neutralization testing and screening of anti-infective drugs for COVID-19” (Nature Communications, 2020).

A short description of one data set: in vitro. Particulars: human.
For a further data set, the system named is SARS-CoV-2-Nluc. Kind of data set: microbe, parasite or virus in culture. The format is cell-based.
[1] abbreviates: Severe acute respiratory syndrome coronavirus 2, 48 h.
Where [2] appears, read: Severe acute respiratory syndrome coronavirus 2, read-out: EC50 (µM) Replicate 1.
The mark [3] stands for this setting: Severe acute respiratory syndrome coronavirus 2, read-out: EC50 (µM) Replicate 2.
[4] abbreviates: read-out: EC50 (µM) Replicate 1.
[5] abbreviates: read-out: EC50 (µM) Replicate 2.

Read-outs that look alike come from different tables or passages of the source.

For `CC(C)(C)NC(=O)[C@@H]1CN(Cc2cccnc2)CCN1C[C@@H](O)C[C@@H](Cc1ccccc1)C(=O)N[C@H]1c2ccccc2C[C@H]1O` [Indinavir], the CC50 in the data set “in vitro” (CC50), in the data set “in vitro” (CC50 (µM) Replicate 1) and in the data set “in vitro” (CC50 (µM) Replicate 2) was greater than 50 µM each time. In addition, the EC50 in the data set on SARS-CoV-2-Nluc (setting [1]), with SARS-CoV-2-Nluc (setting [2]) and in the data set on SARS-CoV-2-Nluc (setting [3]) was greater than 10 µM throughout.
`CCOC(=O)[C@H](C)N[P@](=O)(CO[C@@H]1C=C(F)[C@H](n2cnc3c(N)ncnc32)O1)Oc1ccccc1` [Rovafovir (GS-9131), Rovafovir]: the EC50 in the data set on SARS-CoV-2-Nluc (read-out: EC50), in the data set on SARS-CoV-2-Nluc (setting [4]) and with SARS-CoV-2-Nluc (setting [5]) was greater than 10 µM in each case.
In the case of Voxilaprevir, the EC50 in the data set with SARS-CoV-2-Nluc (read-out: EC50), in the data set on SARS-CoV-2-Nluc (setting [4]) and in the data set with SARS-CoV-2-Nluc (setting [5]) was greater than 10 µM in each case.
On to `O=C(Nc1ccc([N+](=O)[O-])cc1Cl)c1cc(Cl)ccc1O` [Niclosamide], for which the CC50 in the data set “in vitro” (CC50) is 1.28 ± 0.23 µM; in the data set “in vitro” (CC50 (µM) Replicate 1), 1.44 µM; in “in vitro” (CC50 (µM) Replicate 2), 1.12 µM. For the same compound, the “Selectivity index (SI) = CC50/EC50” value in the data set with SARS-CoV-2-Nluc is on record as 1.8. Besides, the EC50 (as a rule, the concentration at which the effect is half-maximal) was found to be 0.715 ± 0.332 µM in the data set on SARS-CoV-2-Nluc (setting [1]), 0.95 µM in the data set on SARS-CoV-2-Nluc (setting [2]) and 0.48 µM with SARS-CoV-2-Nluc (setting [3]).
Take `COC(=O)N[C@H](C(=O)N1CC2(CC2)C[C@H]1c1ncc(-c2ccc3c(c2)C(F)(F)c2cc(-c4ccc5nc([C@@H]6[C@H]7CC[C@H](C7)N6C(=O)[C@@H](NC(=O)OC)C(C)C)[nH]c5c4)ccc2-3)[nH]1)C(C)C` [Ledapisvir]: the CC50 in the data set “in vitro” (CC50), in “in vitro” (CC50 (µM) Replicate 1) and in “in vitro” (CC50 (µM) Replicate 2) was greater than 50 µM each time. Also, the EC50 in the data set on SARS-CoV-2-Nluc (setting [1]), with SARS-CoV-2-Nluc (setting [2]) and with SARS-CoV-2-Nluc (setting [3]) was greater than 10 µM in each case.
Take `CC(C)CN(C[C@@H](O)[C@H](Cc1ccccc1)NC(=O)O[C@H]1CO[C@H]2OCC[C@H]21)S(=O)(=O)c1ccc(N)cc1` [Darunavir]: the CC50 in “in vitro” (CC50), in the data set “in vitro” (CC50 (µM) Replicate 1) and in the data set “in vitro” (CC50 (µM) Replicate 2) was greater than 50 µM in each case. Besides, the EC50 in the data set on SARS-CoV-2-Nluc (setting [1]), in the data set on SARS-CoV-2-Nluc (setting [2]) and with SARS-CoV-2-Nluc (setting [3]) was greater than 10 µM each time.
As to `C=C1[C@H](CO)[C@@H](O)C[C@@H]1n1cnc2c(=O)[nH]c(N)nc21` [Entecavir], the CC50 in the data set “in vitro” (CC50), in the data set “in vitro” (CC50 (µM) Replicate 1) and in “in vitro” (CC50 (µM) Replicate 2) was greater than 50 µM throughout. The EC50 in the data set with SARS-CoV-2-Nluc (setting [1]), in the data set with SARS-CoV-2-Nluc (setting [2]) and in the data set with SARS-CoV-2-Nluc (setting [3]) was greater than 10 µM each time.
In the case of `CC(C)c1nc(CN(C)C(=O)N[C@H](C(=O)N[C@@H](Cc2ccccc2)C[C@H](O)[C@H](Cc2ccccc2)NC(=O)OCc2cncs2)C(C)C)cs1` [Ritonavir], the EC50 with SARS-CoV-2-Nluc (setting [1]), with SARS-CoV-2-Nluc (setting [2]) and in the data set with SARS-CoV-2-Nluc (setting [3]) was greater than 10 µM throughout.
Take `CC#CC(=O)N1CC[C@@H](n2c(=O)n(-c3ccc(Oc4ccccc4)cc3)c3c(N)ncnc32)C1` [Tirabrutinib]: the CC50 in “in vitro” (CC50), in “in vitro” (CC50 (µM) Replicate 1) and in the data set “in vitro” (CC50 (µM) Replicate 2) was greater than 50 µM each time. Moreover, the half-maximal effective concentration (EC50) with SARS-CoV-2-Nluc (setting [1]), with SARS-CoV-2-Nluc (setting [2]) and in the data set with SARS-CoV-2-Nluc (setting [3]) was greater than 10 µM throughout.
Consider `O=C1c2c(O)c(=O)ccn2N([C@@H]2c3ccccc3SCc3c2ccc(F)c3F)[C@@H]2COCCN12` [Baloxavir], for which the CC50 in “in vitro” (CC50) came to 47 ± 1.3 µM; in “in vitro” (CC50 (µM) Replicate 1), 46 µM; in “in vitro” (CC50 (µM) Replicate 2) it was 47.9 µM. Further, the 50% effective concentration (EC50) in the data set on SARS-CoV-2-Nluc (setting [1]), in the data set on SARS-CoV-2-Nluc (setting [2]) and in the data set on SARS-CoV-2-Nluc (setting [3]) was greater than 10 µM each time.
On to `CC1=CC[C@H](C(=O)N(c2cc(C#CC(C)(C)C)sc2C(=O)O)[C@H]2CC[C@](O)(CO[C@H]3CCOC3)CC2)CC1` [Radalbuvir], for which the CC50 in “in vitro” (CC50), in “in vitro” (CC50 (µM) Replicate 1) and in “in vitro” (CC50 (µM) Replicate 2) was greater than 50 µM in each case. The concentration for a half-maximal effect (EC50) with SARS-CoV-2-Nluc (setting [1]), in the data set on SARS-CoV-2-Nluc (setting [2]) and with SARS-CoV-2-Nluc (setting [3]) was greater than 10 µM throughout.
Turning to `Cc1cn2nc([C@@H]3CCCCN3C(=O)c3cc(Cl)ccc3NS(C)(=O)=O)cc2nc1N1CC[C@H](N)C1` [Presatovir], the results for the EC50 in the data set with SARS-CoV-2-Nluc (setting [1]), in the data set on SARS-CoV-2-Nluc (setting [2]) and in the data set with SARS-CoV-2-Nluc (setting [3]) were 2.53 ± 0.69 µM, 3.01 µM and 2.04 µM, respectively.
